Test results from PubChem BioAssay AID1117361 (Southern Research Institute, 2015).

molecular target: Protein Tat (Human immunodeficiency virus type 1 group M subtype B (isolate HXB2)) (UniProt P04608); assay: HIV-1 Tat–TAR interaction blockers – biochemical, fluorescence polarization, FAM-labeled TAR RNA, counter-screen for Vif-APOBEC3G degradation inhibitor project, dose response (AID 1117361); conditions: Tat-TAR RNA binding
Sequence (P04608 whole entry, looked up): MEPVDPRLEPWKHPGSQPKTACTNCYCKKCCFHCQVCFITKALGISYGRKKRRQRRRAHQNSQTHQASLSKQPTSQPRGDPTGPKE

Point of comparison: `CNc1cccccc1=S`, IC50 4.41 µM. Against it:
- COc1cccc(CNC(=O)CCNS(=O)(=O)c2cccs2)c1 — 2.1-fold higher, 9.05 µM
- CN1c2ccsc2C(O)=C(C(=S)Nc2ccc(F)c(Cl)c2)S1(=O)=O — within 1.5-fold, 5.38 µM
- O=S(=O)(c1ccc(OCC(O)CN2CCC(Cc3ccccc3)CC2)cc1)N1CCOCC1 (stereo not given) — 2.3-fold higher, 10.3 µM
- CO[C@H]1C=CO[C@@]2(C)Oc3c(C)c(O)c4c(O)c(c(C=NN5CCN(C)CC5)c(O)c4c3C2=O)NC(=O)C(C)=CC=C[C@H](C)[C@H](O)[C@@H](C)[C@@H](O)[C@@H](C)[C@H](OC(C)=O)[C@@H]1C — 2.5-fold higher, 11.2 µM
- CC1=C(C(=O)Nc2ccccc2F)C(c2ccsc2)C2=C(CC(c3ccccc3)CC2=O)N1 (stereo not given) — within 1.5-fold, 4.06 µM
- CC(=O)OCCCNc1cc(Sc2nc3ccccc3s2)c2nonc2c1[N+](=O)[O-] — within 1.5-fold, 3.41 µM
- c1cncc(-c2nnc3sc(-c4ccco4)nn23)c1 — 15-fold higher, 64 µM
- O=C1C(Cl)=C(N2CCOCC2)C(=O)N1c1ccccc1 — 3.8-fold higher, 16.6 µM
- S=c1[nH]nc(C2CC2)n1Cc1ccco1 — 10-fold higher, 45.9 µM
- CNc1ccccc(C(=O)/C=C/c2ccccc2OC)c1=O — 1.5-fold higher, 6.69 µM
- CN(CCc1ccccc1)C(=O)c1ccc(NC(=O)Cc2ccc(NC(=O)C3CCN(C(=O)CCc4ccccc4)CC3)cc2)cc1 — 10-fold higher, 44.3 µM
- CCCn1c(=N)n(CC(O)c2ccco2)c2ccccc21 (stereo not given) — 18-fold higher, 78.2 µM
- Cc1nc2ncccn2c1-c1csc(NCc2ccco2)n1 — within 1.5-fold, 6.08 µM
- CCOc1cccc(CNCCNC(=O)c2nonc2N)c1 — 19-fold higher, 84.2 µM
- O=C1NC(=S)SC1=C1CCCC1 — within 1.5-fold, 6.59 µM
- CNc1ccc(Br)cc(C(=O)/C=C/c2ccc(OC)cc2)c1=O — 2.1-fold higher, 9.15 µM
- COc1cccc(-c2cn3nc4c(nc3n2)CCCC4)c1 — 23-fold higher, 100 µM
- COc1ccc(/C=C(\NC(=O)c2ccc(OCC(C)C)cc2)C(=O)OCc2ccco2)cc1 — 14-fold higher, 61.5 µM
- COc1ccc(-c2cc(-c3ccco3)[nH]c(=O)c2C#N)cc1 — 3.4-fold higher, 15.1 µM
- CC(=O)Nc1ccc(C=C(C#N)c2ccc(C)cc2)cc1 — 5.6-fold higher, 24.7 µM
- COC(C(=O)C(O)C(C)O)C1Cc2cc3cc(OC4CC(OC5CC(O)C(O)C(C)O5)C(O)C(C)O4)c(C)c(O)c3c(O)c2C(=O)C1OC1CC(OC2CC(OC3CC(O)C(OC)C(C)O3)C(O)C(C)O2)C(O)C(C)O1 (stereo not given) — 6.3-fold higher, 27.9 µM
- CCN(CC)c1ccc2c(c1)CCCN2 — 1.5-fold lower, 2.89 µM
- Cn1cnnc1SC/C(O)=C(\C#N)c1nc2ccccc2[nH]1 — 8.5-fold higher, 37.4 µM
- CC1(c2ccc3noc(-c4ccccc4)c3c2)OCCO1 — 1.5-fold lower, 2.87 µM
- O=C(NC1CC1)c1cc(-c2ccco2)nc2ccccc12 — 2.1-fold higher, 9.27 µM
- COc1ccccc1C1C=C(c2ccc(C)cc2)Nc2nnnn21 (stereo not given) — 19-fold higher, 84.4 µM
- CC(C)C(C(=O)O)N1C(=O)/C(=C/C=C/c2ccco2)SC1=S (stereo not given) — 3.2-fold lower, 1.4 µM
- COc1ccc2ccccc2c1C1CC(=O)N2CN(Cc3ccco3)CSC2=C1C#N (stereo not given) — 15-fold higher, 67.7 µM
- CCc1c(C)sc(NC(=O)OC)c1C(=O)N1CCCCC1 — 6.8-fold higher, 30.2 µM
- C=CCn1c(C)c(C(C)=O)c(N2CCN(c3ccccc3)CC2)nc1=S — 1.7-fold higher, 7.51 µM
- CN1CCN(C2=C(Cl)C(=O)C(c3cnc(N4CCCCC4)s3)=C(Cl)C2=O)CC1 — 1.5-fold higher, 6.71 µM
- O=C(c1cc(-c2ccco2)on1)N1CCN(c2ccccc2)CC1 — 4.2-fold higher, 18.6 µM
- COc1cc(C2C(C#N)=C(N)N(c3cccnc3)C3=C2C(=O)CCC3)ccc1O (stereo not given) — 9.8-fold higher, 43.4 µM
- COc1cc2c(cc1N)-c1ccc(N)cc1C2 — 1.8-fold lower, 2.51 µM
- CCOC(=O)c1c(N)sc(=S)c2c1CCC2 — 12-fold higher, 52 µM
- CCOC(=O)C(=O)Cc1cccnn1 — 11-fold higher, 49.5 µM
- CN(C)c1ccc(Cc2cc3c(O)ccc(O)c3cc(Cc3ccc(N(C)C)cc3)c2=O)cc1 — 19-fold higher, 85.4 µM
- C=CCn1c(COc2ccc(F)cc2)nnc1SCC(=O)NC(=O)NCc1ccco1 — 21-fold higher, 93.8 µM
- C/C(=N\Nc1ccc([N+](=O)[O-])cc1[N+](=O)[O-])c1cc2c(ccc3ccccc32)oc1=O — 3.5-fold higher, 15.6 µM
- C=C(C)C(=O)Nc1cccc(C2=NOC3(C2)C[C@@H](C(N)=O)N(C(=O)c2cc([N+](=O)[O-])cc([N+](=O)[O-])c2)C3)c1 (stereo not given in full) — 12-fold higher, 52.9 µM
- Cc1ccc(C2SCC(=O)N2Cc2cn3ccsc3n2)o1 (stereo not given) — 16-fold higher, 68.5 µM
- O=C(CC1C(=O)NCCN1Cc1ccc(F)cc1)NCCN1CCCc2ccccc21 (stereo not given) — 5-fold higher, 22.1 µM
- O=C(N/N=C/C(Br)=C/c1ccccc1)c1cc(-c2ccco2)[nH]n1 — 1.9-fold higher, 8.53 µM
- COC(=O)c1ccccc1NC(=O)CCS(=O)(=O)c1ccc(Br)cc1 — 4.2-fold higher, 18.4 µM
- O=C(CCCN1C(=O)/C(=C\c2ccco2)SC1=S)Nc1cccc2ccccc12 — 1.8-fold higher, 7.92 µM
- COc1cccc(C2CC(c3ccccc3OC)n3nc(N)nc3N2)c1 (stereo not given) — 6.4-fold lower, 0.686 µM
- CN1C(=O)/C(=C/C=C/c2ccco2)C(=O)NC1=S — 2.5-fold higher, 11.2 µM
- O=C(C1CCCN1S(=O)(=O)c1cccc2cccnc12)N1CCN(c2ccccc2)CC1 (stereo not given) — 11-fold higher, 46.8 µM
- O=C(COC(=O)c1cc(-c2ccco2)nc2ccccc12)NCc1ccc2c(c1)OCO2 — 4.1-fold higher, 18.2 µM
- Cc1ccc(C(=O)C2=C(O)C(=O)N(c3ncccn3)C2c2ccc(F)cc2)o1 (stereo not given) — 19-fold higher, 82.7 µM
- O=C(CCCCCN1C(=O)CCC1=O)Nc1ccc(Cl)c(C(F)(F)F)c1 — 3.7-fold higher, 16.4 µM
- Nc1cccc2cc(S(=O)(=O)O)ccc12 — 15-fold higher, 67.9 µM
- Nc1c(C(=O)NC2CC2)sc2nc3c(c(-c4ccco4)c12)CC/C3=C/c1ccco1 — 4.7-fold lower, 0.937 µM
- CNc1ccc(Br)cc(C(=O)/C=C/c2ccc(OC)cc2OC)c1=O — 12-fold higher, 52 µM
